Here are results for 2 molecules from ChEMBL document CHEMBL1147297, “4-Hydroxy-25-desoxyneorollinicin, a new bistetrahydrofuranoid acetogenin from Rollinia papilionella” (1989).

Common to all, as to type: functional
In assay [1] the test system is A549. As to the kind of experiment: Cytotoxicity against human A549 cells. Conditions: read-out: ED50 (the source's name).
The subject of assay [2] is MCF7. Put plainly: Cytotoxicity against human MCF7 cells. Conditions: read-out: ED50 (the source's name).
Assay [3] deals with P388. Put plainly: Cytotoxicity against mouse P388 cells.

A value given as a limit tells only on which side of the number the result lay.

Take `CCCCCCCCCC[C@@H](O)[C@@H]1CC[C@H]([C@H]2CC[C@@H]([C@@H](O)CCCCCCCCCCC(O)CC3=CC(C)OC3=O)O2)O1` (stereo partly drawn): the EC50 in assay [1] and in assay [2] was below 1 ng/mL throughout. `CCCCCCCCC[C@@H](O)[C@@H](O)[C@@H]1CC[C@@H]([C@@H]2CC[C@@H]([C@@H](O)CCCCCCCCCCCCC3=CC(C)OC3=O)O2)O1` (stereo partly drawn) [ROLLINICIN] returned an ED50 in assay [3] of 2.9 ×10⁻⁸ ug/ml.
